Assay results as given in patent US4570013A, “Biphenylylalkanoic acid derivatives, methods of preparation and pharmaceutical compositions therefrom” (Dr. L. Zambeletti S.p.A., priority 1983, dated 1986).
Read-outs that look alike come from different tables or passages of the source.

Legend:
[1] = test system: Salmonella thyphimurium TA 1535; TA 1538; TA 100; TA 98; assay: Ames test, mutagenic action; type: cell-based; settings: with and without metabolic activation, up to 5000 μg per plate
[2] = test system: Hyperthermia caused by brewer's yeast in rats; assay: brewer's yeast hyperthermia (method of C. Winter), antipyretic activity; type: in vivo; settings: for ED50: Rattus norvegicus, po
Source text: The antipyretic activity has been studied according to the method of C. Winter, Toxicol. and Appl. Pharmacol., 5, 247 (1963), in rats, by determining the ability of the substance to reduce the increase of body temperature caused by the subcutaneous administration of brewer's yeast.

[3] = test system: aggregating action of arachidonic acid; assay: ex vivo study of aggregating action of arachidonic acid after oral administration; type: in vivo; settings: guinea pigs, oral dose equal to antiinflammatory ED50
[4] = test system: writhings caused by 2-phenylparabenzoquinone in mice; assay: writhing test (method of Siegmund), 2-phenylparabenzoquinone, analgesic activity; type: in vivo, Swiss mice; settings: for Contorsions % (change vs controls) / No. Contorsions: orally at ED50: biphenylylacetic acid 12, Ia 32 mg/kg; for ED50: Mus musculus, po
Source text: The analgesic activity has been studied according to the method described by Siegmund (E. Siegmund et al, Proc. Soc. Exptl. Biol. Med., 95, 729 (1957)), according to which the algogenic stimulus consists of the intraperitoneal injection of 2-phenylparabenzoquinone and the algesia manifests itself in repeated abdominal contractions with an extension of the rear limbs and contorsions of the body ("writhing test").

[5] = gastrolesive action after single doses; settings: rat, in vivo
acute toxicity (DL50) = settings: mouse, in vivo
Source text: Finally, the following values of DL50 have been determined in mice for compound Ia: […]

[6] = test system: oedema induced in the rats' paw by intradermic injection of carrageenin; assay: carrageenin-induced paw oedema (method of Winter), antiinflammatory activity; type: in vivo; settings: Rattus norvegicus, po
[7] = test system: protective activity in the hot plate test; assay: hot plate test, central analgesic activity; type: in vivo; settings: up to 200 mg/kg^-1 orally, mice
in vivo = settings: rat, po
[8] = test system: platelet aggregation induced by arachidonic acid; assay: platelet aggregation induced by arachidonic acid in vitro (method of Born); type: cell-based, guinea pigs; settings: guinea pig platelet-enriched plasma
Experimental: The activity of compound Ia on the metabolism of arachidonic acid has been studied in virto according to the method described by B. Fjalland, J. Pharm. Pharmacol., 26, 448 (1974). In these tests the compound being examined is capable of inhibiting the synthesis of prostaglandin and thromboxane caused by arachidonic acid (AA) incubated with lung tissue of guinea pigs (IC50 =0.05 mM). The activity on the platelet aggregation induced by arachidonic acid has been determined in vitro on plasma enriched with platelets of guinea pigs according to the method described by G. V. R. Born, Nature 194, 927 (1962).

COc1ccccc1OCC(O)COC(=O)Cc1ccc(-c2ccccc2)cc1 (stereo not drawn) [Compound Ia, 1-Biphenylylacetoxy-3-(2-methoxyphenoxy)-propan-2-ol]
mutagenic action (Ames test) [1]: has not shown any mutagenic action
Temperature after administration of the substance, t ([2]; 6 mg/kg os, 1 h): 38.01±0.07 °C
Temperature change Δt after administration of the substance ([2]; 6 mg/kg os, 1 h): -0.63 °C
Temperature after administration of the substance, t ([2]; 6 mg/kg os, 2 h): 37.71±0.09 °C
Temperature change Δt after administration of the substance ([2]; 6 mg/kg os, 2 h): -0.75 °C
P/S, ratio of protected animals with respect to total screened animals ([2]; 6 mg/kg os, 3 h): 1/10
Temperature after administration of the substance, t ([2]; 6 mg/kg os, 3 h): 37.70 °C
Temperature change Δt after administration of the substance ([2]; 6 mg/kg os, 3 h): -0.69 °C
Temperature after administration of the substance, t ([2]; 6 mg/kg os, 4 h): 37.85±0.14 °C
Temperature change Δt after administration of the substance ([2]; 6 mg/kg os, 4 h): -0.45 °C
Temperature after administration of the substance, t ([2]; 6 mg/kg os, 5 h): 38.07±0.15 °C
Temperature change Δt after administration of the substance ([2]; 6 mg/kg os, 5 h): -0.19 °C
Temperature after administration of the substance, t ([2]; 6 mg/kg os, 6 h): 38.10 °C
Temperature change Δt after administration of the substance ([2]; 6 mg/kg os, 6 h): -0.14 °C
Temperature after administration of the substance, t ([2]; 12 mg/kg os, 1 h): 37.81±0.06 °C
Temperature change Δt after administration of the substance ([2]; 12 mg/kg os, 1 h): -0.83 °C
Temperature after administration of the substance, t ([2]; 12 mg/kg os, 2 h): 37.40±0.05 °C
Temperature change Δt after administration of the substance ([2]; 12 mg/kg os, 2 h): -1.06 °C
P/S, ratio of protected animals with respect to total screened animals ([2]; 12 mg/kg os, 3 h): 4/10
Temperature after administration of the substance, t ([2]; 12 mg/kg os, 3 h): 37.32±0.08 °C
Temperature change Δt after administration of the substance ([2]; 12 mg/kg os, 3 h): -1.07 °C
Temperature after administration of the substance, t ([2]; 12 mg/kg os, 4 h): 37.41±0.07 °C
Temperature change Δt after administration of the substance ([2]; 12 mg/kg os, 4 h): -0.89 °C
Temperature after administration of the substance, t ([2]; 12 mg/kg os, 5 h): 37.66±0.09 °C
Temperature change Δt after administration of the substance ([2]; 12 mg/kg os, 5 h): -0.50 °C
Temperature after administration of the substance, t ([2]; 12 mg/kg os, 6 h): 37.88±0.07 °C
Temperature change Δt after administration of the substance ([2]; 12 mg/kg os, 6 h): -0.36 °C
Temperature after administration of the substance, t ([2]; 24 mg/kg os, 1 h): 37.66±0.05 °C
Temperature change Δt after administration of the substance ([2]; 24 mg/kg os, 1 h): -0.98 °C
Temperature after administration of the substance, t ([2]; 24 mg/kg os, 2 h): 37.31±0.05 °C
Temperature change Δt after administration of the substance ([2]; 24 mg/kg os, 2 h): -1.15 °C
P/S, ratio of protected animals with respect to total screened animals ([2]; 24 mg/kg os, 3 h): 8/10
Temperature after administration of the substance, t ([2]; 24 mg/kg os, 3 h): 37.13±0.06 °C
Temperature change Δt after administration of the substance ([2]; 24 mg/kg os, 3 h): -1.26 °C
Temperature after administration of the substance, t ([2]; 24 mg/kg os, 4 h): 37.16±0.06 °C
Temperature change Δt after administration of the substance ([2]; 24 mg/kg os, 4 h): -1.14 °C
Temperature after administration of the substance, t ([2]; 24 mg/kg os, 5 h): 37.34±0.05 °C
Temperature change Δt after administration of the substance ([2]; 24 mg/kg os, 5 h): -0.92 °C
Temperature after administration of the substance, t ([2]; 24 mg/kg os, 6 h): 37.55±0.06 °C
Temperature change Δt after administration of the substance ([2]; 24 mg/kg os, 6 h): -0.69 °C
ED50 ([2]; rats, orally, read-out: ED50, antipyretic activity): 14 mg/kg
duration of antipyretic activity ([2]; rats, orally): continues after the sixth hour
onset of antipyretic activity after the treatment ([2]; rats, orally): within one hour after the treatment
duration of decrease in aggregating action of arachidonic acid [3]: remains up to the fifth hour
start of decrease in aggregating action of arachidonic acid after administration [3]: starts three hours after the administration
onset of analgesic activity after administration ([4]; 32 mg/kg orally, mice): 15 min
Contorsions % (change vs controls) ([4]; 5 minutes): -28%
No. Contorsions ([4]; 5 minutes): 33.1 ± 4.1
Contorsions % (change vs controls) ([4]; 15 minutes): -33%
No. Contorsions ([4]; 15 minutes): 35.1 ± 3.4
Contorsions % (change vs controls) ([4]; 30 minutes): -54%
No. Contorsions ([4]; 30 minutes): 22.7 ± 2.4
Contorsions % (change vs controls) ([4]; 1 hour): -47%
No. Contorsions ([4]; 1 hour): 26.8 ± 3.3
Contorsions % (change vs controls) ([4]; 2 hours): -46%
No. Contorsions ([4]; 2 hours): 25.4 ± 3.8
Contorsions % (change vs controls) ([4]; 3 hours): -44%
No. Contorsions ([4]; 3 hours): 27.6 ± 3.4
Contorsions % (change vs controls) ([4]; 4 hours): -31%
No. Contorsions ([4]; 4 hours): 33.5 ± 3.6
Contorsions % (change vs controls) ([4]; 5 hours): -1%
No. Contorsions ([4]; 5 hours): 45.0 ± 3.2
ED50 ([4]; mice, orally, read-out: ED50, analgesic activity (writhing test)): 32 mg/kg
selectivity ratio [5]: 2 to 4
LD50 (acute toxicity (DL50); ip, read-out: DL50 ip): 260 mg/kg
LD50 (acute toxicity (DL50); po, read-out: DL50 orally): 3330 mg/kg
ED50 ([6]; orally, read-out: effective dose ED50, antiedemigenic (antiinflammatory) activity): 22.5 mg/kg
protective activity in the hot plate test (central analgesic activity) [7]: has not shown any protective activity
TD50 (in vivo): 61.7 mg/kg
IC50 ([8]; Cavia porcellus, read-out: IC50, anti aggregating activity): 123 µM
anti aggregating activity, concentration dependence [8]: proportional to the concentration used

COc1ccc2cc(C(C)C(=O)O)ccc2c1 (stereo not drawn) [Naproxen, 6-methoxy-α-methyl-2-naphthaleneacetic acid, reference compound]
ED50 ([2]; rats, os, read-out: Antipyretic activity (temperature increase by brewer's yeast, in rats) ED50): 112 mg/kg
ED50 ([4]; read-out: Analgesic activity (against pain caused by 2-phenyl-p-benzo-quinone in mice) ED50): 20 mg/kg
TD50 ([5]; po): 17 mg/kg
ED50 ([6]; os, read-out: Antiinflammatory activity (oedema caused by carrageenin in rats) ED50): 24 mg/kg
